Laboratory results from patent EP1506960B1, “Indole compounds as inhibitors of tubulin polymerisation for the treatment of angiogenesis-related disorders” (National Health Research Institutes, priority 2003, dated 2005).
Where two headings read alike, the source gives them in different places.

Assays:
KB = assay: Cell growth inhibition assay (cytotoxicity), KB cell line; conditions: Homo sapiens, 72 h, read-out: Cytotoxicity KB
Description: (§1) Cell Growth Inhibition Assay: MCF-7 breast carcinoma cells were maintained in plastic dishes in DMEM medium supplemented with 10% fetal bovine serum. For in vitro treatment, tumor cells were seeded in […] of culture medium/well in 96-well plates to a final cell density of 6 x 10^3 cell/mL and incubated in a CO2 incubator at 37 °C for 24 h. The cells were treated with at least five different concentrations of a test indole compound, and incubated in a CO2 incubator at 37 °C for 72 h. The number of viable cells was estimated using MTS assay and absorbance was measured at 490 nm. Cytotoxicity of the test compounds was expressed in terms of IC50 values. The values presented represent averages of three independent experiments, each with duplicate samples.
(§2) Indole compounds were tested against several panels of drug-resistant cell lines. It is well known that several anti-mitotic agents, including vinca alkaloid (vincristine, vinblastine) and taxol, have been introduced in clinic to treat various human cancers. […] The mechanisms responsible for taxol resistance include overexpression of p-glycoprotein and mutation of tubulin.
(§3) The mechanisms responsible for VP16-resistance (KB7D) were down-regulation of topoisomerase II and overexpression of MRP 1.

KB-Vin10 = assay: cells; conditions: read-out: Cytotoxicity KB -Vin10
Description: as §1, §2, §3

KB7D = assay: cells; conditions: Homo sapiens, 72 h, read-out: Cytotoxicity KB7D
Description: as §1, §2, §3

KB100 = assay: Cell growth inhibition assay on drug-resistant line KB100; conditions: Homo sapiens, 72 h, read-out: Cytotoxicity KB100
Description: as §1, §2, §3

HONECis-6 = assay: Cell growth inhibition assay on drug-resistant line HONECis-6; conditions: read-out: Cytotoxicity HONECis -6, 72 h
Description: as §1, §2, §3

NUGC = assay: Cell growth inhibition assay (cytotoxicity), NUGC; assay type: cell-based; conditions: Homo sapiens, Table 2, Stomach, MTS, 72 h
Description: (§4) In addition, indole compounds described in the "Summary" section were also tested on the A549 lung cell line, MESSA uterine cell line, MKN45 stomach cell line, SW480 colon cell line, NUGC3 stomach cell line, and MESSA/DX5 uterine cell line.

SW480 colon cell line = assay: Cell growth inhibition assay (cytotoxicity), SW480; assay type: cell-based; conditions: Homo sapiens, Table 2, MTS, 72 h
Description: as §4

HONE-1 = assay: Cell growth inhibition assay (cytotoxicity), HONE-1 cell line; conditions: Homo sapiens, HONE1, 72 h
Human MKN45 cancer cells = assay: Tumor regression model, MKN45 xenograft; assay type: in vivo, Male CD 1 nude mice
Description: (§5) Tumor Regression Models: The procedures of cancer cell implantation were similar to those previously reported in Chen et al., Cancer Res., (1998) 58:2777-2783, with modifications. Male CD 1 nude mice (5~6 weeks old) were purchased from Charles River Laboratories (Wilmington, MA, USA). Human MKN45 and KB cancer cells were maintained in RPMI 1640 plus 10% fetal bovine serum. Each animal was subcutaneously implanted with 5×10^5 MKN45 or 1×10^6 KB cells in 0.1 ml at one flank. Tumor growth was examined three times a week after implantation. The volume of tumor was measured with a caliper and calculated as 1/2×length×width^2 in mm^3. Test compounds were dissolved completely in a vehicle mixture of dimethyl sulfoxide:cremophor:saline (1:4:15). When the size of a growing tumor reached approximately 100 mm^3, the mice were treated with test compounds intravenously from tail veins at a concentration of 50 mg/kg daily for two weeks. Mice in a control group were treated with the solvent vehicle only. Tumor sizes and body weights were measured twice a week and after the mice were sacrificed.

A549 lung cell line = assay: Cell growth inhibition assay (cytotoxicity), A549; assay type: cell-based; conditions: Homo sapiens, Table 2, MTS, 72 h
Description: as §4

MESSA uterine cell line = assay: Cell growth inhibition assay (cytotoxicity), MESSA; assay type: cell-based; conditions: Homo sapiens, MES-SA, Table 2, MTS, 72 h
Description: as §4

[1] = system: MCF-7 breast carcinoma cells; assay: Cell growth inhibition assay (cytotoxicity), MCF7; assay type: cell-based; conditions: Homo sapiens, Table 2, MTS, 72 h
Description: In one assay, an indole compound is tested for its cytotoxicity on MCF-7 cells (a breast carcinoma cell line). More specifically, cells are incubated with a test compound for 24 hr. The cytotoxic effect can be determined using the MTS (3-(4,5-dimethylthiazol-2-yl)-5-(3-carboxymethoxyphenyl)-2-(4-sulfophenyl)-2H-tetrazolium, inner salt) assay method described in Goodwin et al. (1995, J. Immunol. Methods. 179: 95-103). Cytotoxicity of the test compound is expressed in terms of IC50 values (i.e., the concentration of the test compound which achieves a half-maximal inhibition of cell growth).

MKN45 stomach cell line = assay: Cell growth inhibition assay (cytotoxicity), MKN45; assay type: cell-based; conditions: Homo sapiens, MKN-45, Table 2, MTS, 72 h
Description: as §4

KBtaxol-5 = assay: Cell growth inhibition assay on drug-resistant line KBtaxol-5; conditions: Homo sapiens, 72 h, read-out: Cytotoxicity KBtaxol -5
Description: as §1, §2, §3

[2] = system: MESSA/DX5 uterine cell line; assay: Cell growth inhibition assay (cytotoxicity), MESSA/DX5; assay type: cell-based; conditions: Homo sapiens, MES-SA/Dx5, Table 2, MTS, 72 h
Description: as §4

Human KB cancer cells = assay: Tumor regression model, KB xenograft; assay type: in vivo, Male CD 1 nude mice; conditions: Compound 1 and cisplatin together vs cisplatin alone
Description: as §5

KB100R = assay: Cell growth inhibition assay on line KB100R; conditions: Homo sapiens, 72 h, read-out: Cytotoxicity KB100R
Description: as §1, §2, §3

KB7DR = assay: Cell growth inhibition assay on line KB7DR; conditions: Homo sapiens, 72 h, read-out: Cytotoxicity KB7DR
Description: as §1, §2, §3

Q: For `CC[C@@]1(O)C(=O)OCc2c1cc1n(c2=O)Cc2cc3ccccc3nc2-1` [CPT, camptothecin], which IC50 (KB) is on record?
A: Its IC50 is 26 nM.

Q: What about the IC50 (KB-Vin10; Homo sapiens, KB-VIN10, 72 h) of the same compound?
A: Its IC50 is 400 nM.

Q: What about the IC50 (KB7D) of the same compound?
A: Its IC50 is 133 nM.

Q: And the IC50 (KB100)?
A: The IC50 was 1290 nM.

Q: `N.N.[Cl][Pt][Cl]` [Cisplatin, reference compound] was tested. Which IC50 (HONECis-6; Table 1, Cis Res., MTS) did it give?
A: Its IC50 is 15000 nM.

Q: And the IC50 (KB-Vin10; Table 1, Vin. Res, MTS, 72 h)?
A: Its IC50 is 5 nM.

Q: For `COc1ccc2c(C(=O)c3cc(OC)c(OC)c(OC)c3)c[nH]c2c1` [Compound 1, (6-methoxy-1H-indol-3-yl)-(3,4,5-trimethoxy-phenyl)-methanone], which IC50 (NUGC) is on record?
A: Its IC50 is 3 nM.

Q: What about the IC50 (KB) of the same compound?
A: The IC50 was 6 nM.

Q: And the IC50 (SW480 colon cell line)?
A: The IC50 was 3 nM.

Q: What about the IC50 (HONE-1; read-out: Cytotoxicity HONE -1) of the same compound?
A: Its IC50 is 4 nM.

Q: What about the IC50 (HONE-1; read-out: Cytotoxicity HONE-1) of the same compound?
A: The IC50 was 4 nM.

Q: What about the IC50 (HONECis-6; Homo sapiens) of the same compound?
A: The IC50 was 4.5 nM.

Q: What about the “activity in inhibiting tumor growth, administered together with cisplatin” value (Human MKN45 cancer cells; Compound 1 and cisplatin together vs cisplatin alone) of the same compound?
A: The value was “higher activity in inhibiting tumor growth than cisplatin administered alone”.

Q: What about the “activity in inhibiting tumor growth” value (Human MKN45 cancer cells; intravenously 50 mg/kg daily for two weeks, compared with cisplatin) of the same compound?
A: Its value is “higher activity in inhibiting tumor growth than cisplatin”.

Q: What about the IC50 (A549 lung cell line) of the same compound?
A: The IC50 was 17 nM.

Q: What about the IC50 (KB-Vin10; Homo sapiens, KB-VIN10, 72 h) of the same compound?
A: Its IC50 is 7 nM.

Q: What about the IC50 (KB7D) of the same compound?
A: The IC50 was 4 nM.

Q: And the IC50 (MESSA uterine cell line)?
A: The IC50 was 7 nM.

Q: What about the IC50 [1] of the same compound?
A: Its IC50 is 7.6 nM.

Q: And the IC50 (MKN45 stomach cell line)?
A: The IC50 was 4 nM.

Q: What about the IC50 (KBtaxol-5) of the same compound?
A: The IC50 was 7 nM.

Q: What about the IC50 [2] of the same compound?
A: The IC50 was 3.8 nM.

Q: What about the “activity in inhibiting tumor growth, administered together with cisplatin” value (Human KB cancer cells) of the same compound?
A: Its value is “higher activity in inhibiting tumor growth than cisplatin administered alone”.

Q: What about the IC50 (KB100R) of the same compound?
A: The IC50 was 12 nM.

Q: What about the IC50 (KB100) of the same compound?
A: The IC50 was 8 nM.

Q: And the IC50 (KB7DR)?
A: The IC50 was 6 nM.

Q: Which results are given for `COc1ccc2c(C(=O)c3cc(OC)c(OC)c(OC)c3)cn(C(=O)OC(C)(C)C)c2c1` [Compound 6, 6-methoxy-3-(3,4,5-trimethoxy-benzoyl)-indole-1-carboxylic acid tert-butyl ester]?
A: IC50 (KB): 13 nM; IC50 (HONE-1; read-out: Cytotoxicity HONE -1): 19 nM; IC50 (HONECis-6; Homo sapiens): 19 nM; IC50 (KB-Vin10; Homo sapiens, KB-VIN10, 72 h): 9.6 nM; IC50 (KB7D): 8 nM; IC50 (KBtaxol-5): 37 nM; IC50 (KB100R): 18 nM; IC50 (KB100): 18 nM; IC50 (KB7DR): 15 nM

Q: Which IC50 (KB) does the source give for `CC(=O)O[C@H]1C(=O)[C@@]2(C)[C@H]([C@H](OC(=O)c3ccccc3)[C@]3(O)C[C@H](OC(=O)[C@H](O)[C@@H](NC(=O)c4ccccc4)c4ccccc4)C(C)=C1C3(C)C)[C@]1(OC(C)=O)CO[C@@H]1C[C@@H]2O` [Taxol, paclitaxel, reference compound] here?
A: The IC50 was 10 nM.

Q: What about the IC50 (KBtaxol-5) of the same compound?
A: The IC50 was 80 nM.

Q: How did the IC50 (KB) turn out when `COc1cc([C@@H]2c3cc4c(cc3[C@@H](O[C@@H]3O[C@@H]5CO[C@@H](C)O[C@H]5[C@H](O)[C@H]3O)[C@H]3COC(=O)[C@H]23)OCO4)cc(OC)c1O` [VP-16] was run?
A: Its IC50 is 500 nM.

Q: And the IC50 (KB7D)?
A: Its IC50 is 44000 nM.

Q: What about the IC50 (KB7DR) of the same compound?
A: Its IC50 is 3500 nM.

Q: Which IC50 (KB) does the source give for `CC[C@]1(O)C[C@H]2CN(CCc3c([nH]c4ccccc34)[C@@](C(=O)OC)(c3cc4c(cc3OC)N(C=O)[C@H]3[C@@](O)(C(=O)OC)[C@H](OC(C)=O)[C@]5(CC)C=CCN6CC[C@]43[C@@H]65)C2)C1` [Vincristine, reference compound] here?
A: Its IC50 is 1 nM.

Q: And the IC50 (HONE-1; read-out: Cytotoxicity HONE -1)?
A: The IC50 was 0.5 nM.

Q: What about the IC50 (HONECis-6; Homo sapiens) of the same compound?
A: Its IC50 is 0.6 nM.

Q: And the IC50 (KB-Vin10; Homo sapiens, KB-VIN10, 72 h)?
A: Its IC50 is 43 nM.

Q: What about the IC50 (KB7D) of the same compound?
A: The IC50 was 1920 nM.

Q: And the IC50 (KB7DR)?
A: The IC50 was 337 nM.
